Data taken from paper PMC6886721 (Journal of medicinal chemistry, 2019).
Where a SMILES comes first, the peptide text is derived from it. [ ]: non-standard residue; d: D form. Dab = NCC[C@H](N)C(=O)O; Dap = NC[C@H](N)C(=O)O

Assays:
[1] = RP-HPLC temperature profiling, self-association; assay type: physicochemical; conditions: temperature at which maximum retention time is observed over 5–77 °C, Zorbax 300 SB-C8, 0.5% acetonitrile/min, 0.30 mL/min, TFA pH 2
[2] = Circular dichroism, helical structure; assay type: physicochemical; conditions: for [θ]222, aqueous pH 7 / [θ]222, 50% TFE: CD, 222 nm; for [θ]222, aqueous pH 7 / [θ]222, 50% TFE / % helix, aqueous pH 7: 25 °C; for [θ]222, aqueous pH 7: 100 mM KCl, 50 mM Na2HPO4/NaH2PO4, pH 7.0; for [θ]222, 50% TFE: pH 7.0 buffer containing 50% TFE; for % helix induced: increase in molar ellipticity (as a percentage) in the presence of 50% TFE; for % helix, aqueous pH 7: relative to the molar ellipticity of the peptide in 50% TFE
human red blood cells = assay: Hemolytic activity; assay type: cell-based; conditions: for HC50: pH 7.4

With `CC(=O)N[C@H](CCCCN)C(=O)N[C@H](CC(C)C)C(=O)N[C@@H](CCN)C(=O)N[C@H](CO)C(=O)N[C@H](CC(C)C)C(=O)N[C@H](CC(C)C)C(=O)N[C@@H](CCN)C(=O)N[C@@H](C(=O)N[C@H](CC(C)C)C(=O)N[C@H](CO)C(=O)N[C@@H](CCN)C(=O)N[C@H](C)C(=O)N[C@H](C)C(=O)N[C@H](C)C(=O)N[C@H](C)C(=O)N[C@H](C)C(=O)N[C@H](CC(C)C)C(=O)N[C@@H](CCN)C(=O)N[C@@H](C(=O)N[C@H](CC(C)C)C(=O)N[C@H](CC(C)C)C(=O)N[C@@H](CCN)C(=O)N[C@H](C)C(=O)N[C@H](CC(C)C)C(=O)N[C@H](CO)C(=O)N[C@@H](CCN)C(N)=O)[C@H](C)O)[C@H](C)O` [D86(K13A/K16A)-(Lys^1-6 Dab-1)] (Ac-[dK][dL][Dab][dS][dL][dL][Dab][dT][dL][dS][Dab][dA][dA][dA][dA][dA][dL][Dab][dT][dL][dL][Dab][dA][dL][dS][Dab]-NH2) the Tp [1] was 31.0 °C, the “[θ]222, aqueous pH 7” value [2] was 2308 mdeg cm^2/(dmol × res) and the “[θ]222, 50% TFE” value [2] was 18731 mdeg cm^2/(dmol × res). For the same compound, the “% helix induced” value [2] was 88% and the “% helix, aqueous pH 7” value [2] was 12%.
In the case of `CC(=O)N[C@H](CCCCN)C(=O)N[C@H](CC(C)C)C(=O)N[C@@H](CCN)C(=O)N[C@H](CO)C(=O)N[C@H](CC(C)C)C(=O)N[C@H](CC(C)C)C(=O)N[C@@H](CCN)C(=O)N[C@@H](C(=O)N[C@H](CC(C)C)C(=O)N[C@H](CO)C(=O)N[C@@H](CCN)C(=O)N[C@H](C)C(=O)N[C@H](CCCCN)C(=O)N[C@H](C)C(=O)N[C@H](C)C(=O)N[C@H](CCCCN)C(=O)N[C@H](CC(C)C)C(=O)N[C@@H](CCN)C(=O)N[C@@H](C(=O)N[C@H](CC(C)C)C(=O)N[C@H](CC(C)C)C(=O)N[C@@H](CCN)C(=O)N[C@H](C)C(=O)N[C@H](CC(C)C)C(=O)N[C@H](CO)C(=O)N[C@@H](CCN)C(N)=O)[C@H](C)O)[C@H](C)O` [D86(Lys^1-6 Dab-1)] (Ac-[dK][dL][Dab][dS][dL][dL][Dab][dT][dL][dS][Dab][dA][dK][dA][dA][dK][dL][Dab][dT][dL][dL][Dab][dA][dL][dS][Dab]-NH2), the Tp [1] is reported as 5.0 °C, the “[θ]222, aqueous pH 7” value [2] is reported as 1769 mdeg cm^2/(dmol × res) and the “[θ]222, 50% TFE” value [2] is reported as 27923 mdeg cm^2/(dmol × res). For the same compound, the “% helix induced” value [2] was 94%, the “% helix, aqueous pH 7” value [2] was 6% and the HC50 fold improvement (human red blood cells) was >186. The HC50 (human red blood cells) was >2000 µg/mL.
In the case of `CC(=O)N[C@H](CCCCN)C(=O)N[C@H](CC(C)C)C(=O)N[C@@H](CCN)C(=O)N[C@H](CO)C(=O)N[C@H](CC(C)C)C(=O)N[C@H](CC(C)C)C(=O)N[C@@H](CCN)C(=O)N[C@@H](C(=O)N[C@H](CC(C)C)C(=O)N[C@H](CO)C(=O)N[C@@H](CCN)C(=O)N[C@H](C)C(=O)N[C@H](CCCCN)C(=O)N[C@H](C)C(=O)N[C@H](C)C(=O)N[C@H](CCCCN)C(=O)N[C@H](CC(C)C)C(=O)N[C@@H](CCN)C(=O)N[C@@H](C(=O)N[C@H](CC(C)C)C(=O)N[C@H](CC(C)C)C(=O)N[C@@H](CCN)C(=O)N[C@H](C)C(=O)N[C@H](CC(C)C)C(=O)N[C@H](CO)C(=O)N[C@H](CO)C(N)=O)[C@H](C)O)[C@H](C)O` [D102(Lys^1Ser^26-5 Dab-1)] (Ac-[dK][dL][Dab][dS][dL][dL][Dab][dT][dL][dS][Dab][dA][dK][dA][dA][dK][dL][Dab][dT][dL][dL][Dab][dA][dL][dS][dS]-NH2), the HC50 fold improvement (human red blood cells) is reported as >177 and the HC50 (human red blood cells) is reported as >2000 µg/mL.
For `CC(=O)N[C@H](CCCCN)C(=O)N[C@H](CC(C)C)C(=O)N[C@@H](CN)C(=O)N[C@H](CO)C(=O)N[C@H](CC(C)C)C(=O)N[C@H](CC(C)C)C(=O)N[C@@H](CN)C(=O)N[C@@H](C(=O)N[C@H](CC(C)C)C(=O)N[C@H](CO)C(=O)N[C@@H](CN)C(=O)N[C@H](C)C(=O)N[C@H](C)C(=O)N[C@H](C)C(=O)N[C@H](C)C(=O)N[C@H](C)C(=O)N[C@H](CC(C)C)C(=O)N[C@@H](CN)C(=O)N[C@@H](C(=O)N[C@H](CC(C)C)C(=O)N[C@H](CC(C)C)C(=O)N[C@@H](CN)C(=O)N[C@H](C)C(=O)N[C@H](CC(C)C)C(=O)N[C@H](CO)C(=O)N[C@@H](CN)C(N)=O)[C@H](C)O)[C@H](C)O` [D105(K13A/K16A)-(Lys^1-6 Dap-1)] (Ac-[dK][dL][Dap][dS][dL][dL][Dap][dT][dL][dS][Dap][dA][dA][dA][dA][dA][dL][Dap][dT][dL][dL][Dap][dA][dL][dS][Dap]-NH2), the Tp [1] was 39.0 °C, the “[θ]222, aqueous pH 7” value [2] was 9577 mdeg cm^2/(dmol × res) and the “[θ]222, 50% TFE” value [2] was 18038 mdeg cm^2/(dmol × res). For the same compound, the “% helix induced” value [2] was 47% and the “% helix, aqueous pH 7” value [2] was 53%.
In the case of `CC(=O)N[C@H](CCCCN)C(=O)N[C@H](CC(C)C)C(=O)N[C@@H](CN)C(=O)N[C@H](CO)C(=O)N[C@H](CC(C)C)C(=O)N[C@H](CC(C)C)C(=O)N[C@@H](CN)C(=O)N[C@@H](C(=O)N[C@H](CC(C)C)C(=O)N[C@H](CO)C(=O)N[C@@H](CN)C(=O)N[C@H](C)C(=O)N[C@H](CCCCN)C(=O)N[C@H](C)C(=O)N[C@H](C)C(=O)N[C@H](CCCCN)C(=O)N[C@H](CC(C)C)C(=O)N[C@@H](CN)C(=O)N[C@@H](C(=O)N[C@H](CC(C)C)C(=O)N[C@H](CC(C)C)C(=O)N[C@@H](CN)C(=O)N[C@H](C)C(=O)N[C@H](CC(C)C)C(=O)N[C@H](CO)C(=O)N[C@@H](CN)C(N)=O)[C@H](C)O)[C@H](C)O` [D105(Lys^1-6 Dap-1)] (Ac-[dK][dL][Dap][dS][dL][dL][Dap][dT][dL][dS][Dap][dA][dK][dA][dA][dK][dL][Dap][dT][dL][dL][Dap][dA][dL][dS][Dap]-NH2), the Tp [1] is reported as 16.9 °C, the “[θ]222, aqueous pH 7” value [2] is reported as 5961 mdeg cm^2/(dmol × res) and the “[θ]222, 50% TFE” value [2] is reported as 24192 mdeg cm^2/(dmol × res). The “% helix induced” value [2] was 75%, the “% helix, aqueous pH 7” value [2] was 25% and the HC50 fold improvement (human red blood cells) was >287. For the same compound, the HC50 (human red blood cells) was >3000 µg/mL.
